Activity calls are given as the source filed them.
Assays:
[1] = molecular target: T1, High affinity choline transporter 1 (Homo sapiens, UniProt Q9GZV3); test: human choline transporter blockers, potency – cell-based, 10-point CRC, membrane potential dye, dose response (AID 588401); format: functional;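 further: membrane potential dye fluorescence of choline-evoked depolarization via CHT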
T1 sequence (Q9GZV3 whole entry): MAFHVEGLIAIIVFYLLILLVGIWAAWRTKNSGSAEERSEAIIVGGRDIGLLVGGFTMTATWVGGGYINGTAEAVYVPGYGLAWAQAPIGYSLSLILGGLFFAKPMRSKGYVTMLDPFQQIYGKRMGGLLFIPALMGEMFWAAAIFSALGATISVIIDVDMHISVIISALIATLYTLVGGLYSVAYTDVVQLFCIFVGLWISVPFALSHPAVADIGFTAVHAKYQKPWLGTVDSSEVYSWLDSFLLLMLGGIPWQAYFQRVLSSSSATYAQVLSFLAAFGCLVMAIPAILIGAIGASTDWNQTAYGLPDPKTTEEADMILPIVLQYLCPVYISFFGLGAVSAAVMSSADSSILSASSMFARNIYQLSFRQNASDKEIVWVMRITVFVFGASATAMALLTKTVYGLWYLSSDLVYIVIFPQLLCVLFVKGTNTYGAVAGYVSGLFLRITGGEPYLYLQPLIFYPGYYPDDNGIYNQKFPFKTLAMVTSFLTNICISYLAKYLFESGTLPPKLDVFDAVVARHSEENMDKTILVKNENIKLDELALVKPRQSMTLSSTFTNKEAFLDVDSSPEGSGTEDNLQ

[2] = molecular target: T1, High affinity choline transporter 1; test: human choline transporter blockers, potency – cell-based, 5-point CRC, membrane potential dye, dose response (AID 504840); format: functional
Protein Wnt-3a = Protein Wnt-3a (Mus musculus, UniProt P27467); test: antagonism of Wnt3a pathway luciferase reporter – Wnt-LIGHT cells, luminescence, selectivity assay for Gli-SUFU antagonist project, dose response (AID 651570); format: functional; details: read-out: IC50_Mean;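 further: Wnt-LIGHT reporter cells stimulated with conditioned medium from Wnt3a-producing cells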
HEK293 = test: EBV LMP1 TES2 canonical NF-kB signalling blockers – cell-based, HEK293, luciferase, cherry-pick, dose response (AID 588343); format: functional; details: Homo sapiens
Protein RecA = molecular target: T2, Protein RecA (Mycobacterium tuberculosis, UniProt P9WHJ3); test: Fluorescence Cell-Free Homogeneous Dose Retest to Identify Inhibitors of RecA-Intein Splicing Activity. [Related pubchem assays (depositor defined):AID2097, AID2223, AID489010, AID492950]; format: functional
T2 sequence (P9WHJ3 whole entry): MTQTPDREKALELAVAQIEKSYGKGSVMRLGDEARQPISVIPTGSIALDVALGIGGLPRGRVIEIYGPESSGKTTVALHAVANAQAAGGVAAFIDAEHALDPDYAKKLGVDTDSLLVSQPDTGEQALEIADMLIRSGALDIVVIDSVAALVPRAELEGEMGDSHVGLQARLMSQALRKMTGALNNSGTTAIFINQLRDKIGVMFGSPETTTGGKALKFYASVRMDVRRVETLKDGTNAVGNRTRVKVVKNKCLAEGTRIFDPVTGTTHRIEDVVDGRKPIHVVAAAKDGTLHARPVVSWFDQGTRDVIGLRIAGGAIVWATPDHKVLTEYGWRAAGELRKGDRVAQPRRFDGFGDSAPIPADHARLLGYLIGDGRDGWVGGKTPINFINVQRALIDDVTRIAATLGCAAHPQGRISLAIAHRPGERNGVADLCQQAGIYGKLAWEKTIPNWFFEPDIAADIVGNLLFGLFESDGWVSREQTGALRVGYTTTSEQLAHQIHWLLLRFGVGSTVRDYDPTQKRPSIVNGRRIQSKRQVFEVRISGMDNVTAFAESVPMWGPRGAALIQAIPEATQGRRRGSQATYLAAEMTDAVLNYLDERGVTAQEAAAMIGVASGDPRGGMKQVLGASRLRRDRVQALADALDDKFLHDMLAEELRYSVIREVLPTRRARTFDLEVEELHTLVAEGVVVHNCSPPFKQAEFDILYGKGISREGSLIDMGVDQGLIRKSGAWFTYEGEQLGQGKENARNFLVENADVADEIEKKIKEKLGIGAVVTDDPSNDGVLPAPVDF

[3] = molecular target: T3, Replicative DNA helicase DnaB (Mycobacterium tuberculosis, UniProt P9WMR3); test: DnaB intein splicing inhibitors, dose response, biochemical, cell-free fluorescence (AID 449749); format: functional
T3 sequence (P9WMR3 whole entry): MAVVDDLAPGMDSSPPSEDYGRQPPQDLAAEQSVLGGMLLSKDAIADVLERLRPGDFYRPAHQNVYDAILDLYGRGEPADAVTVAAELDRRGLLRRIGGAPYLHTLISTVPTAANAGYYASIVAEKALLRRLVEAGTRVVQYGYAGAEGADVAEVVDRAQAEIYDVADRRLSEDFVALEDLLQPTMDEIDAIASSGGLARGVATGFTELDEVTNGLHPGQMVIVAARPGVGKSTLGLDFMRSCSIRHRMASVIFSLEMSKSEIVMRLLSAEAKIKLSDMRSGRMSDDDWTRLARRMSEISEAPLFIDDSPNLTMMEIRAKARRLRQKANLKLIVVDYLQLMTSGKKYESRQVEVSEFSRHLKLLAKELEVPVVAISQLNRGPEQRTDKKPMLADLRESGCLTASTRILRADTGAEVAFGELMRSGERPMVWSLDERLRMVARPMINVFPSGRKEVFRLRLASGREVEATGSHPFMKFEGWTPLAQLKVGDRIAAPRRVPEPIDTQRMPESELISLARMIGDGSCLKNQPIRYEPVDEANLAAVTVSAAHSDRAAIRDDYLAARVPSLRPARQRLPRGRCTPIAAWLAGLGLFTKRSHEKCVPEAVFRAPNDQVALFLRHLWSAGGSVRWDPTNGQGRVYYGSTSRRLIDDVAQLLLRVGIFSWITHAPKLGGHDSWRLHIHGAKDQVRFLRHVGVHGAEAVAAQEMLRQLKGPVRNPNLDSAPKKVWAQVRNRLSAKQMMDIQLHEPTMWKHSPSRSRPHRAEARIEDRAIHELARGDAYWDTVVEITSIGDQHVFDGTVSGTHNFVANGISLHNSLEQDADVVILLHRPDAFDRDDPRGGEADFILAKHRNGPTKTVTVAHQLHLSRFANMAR

INS1 = test: INS-1E survival protection against cytokine death – cell-based, luminescence, retest, dose response (AID 449756); format: functional; details: Rattus norvegicus;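 further: cell death triggered by IL-1 beta plus TNF-alpha plus IFN-gamma mixture; protective hits raise ATP signal compared with cytokine alone wells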
[4] = reduction of Shn3 3'UTR-driven luciferase in osteoblasts – cell-based, Clone20 osteoblasts, firefly luciferase, cherry-picked, dose response (AID 624132); format: functional;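 further: firefly luciferase luminescence from reporter carrying the Shn3 3'UTR in osteoblasts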
[5] = non-specific 3'UTR reporter inhibition in Clone20-Shn3RL – cell-based, Renilla luciferase, cherry-picked, counter-screen for Shn3 inhibitor project, dose response (AID 624133); format: functional
[6] = loss of viability in HepG2 cells – cell-based, CellTiter-Glo, cherry-picked, cytotoxicity control for Shn3 inhibitor project, dose response (AID 624134); format: functional
[7] = molecular target: 72 kDa type IV collagenase (Homo sapiens, UniProt P08253); test: Dose Response validation of uHTS RPN11 inhibitor hits using a MMP-2 Fluorescence assay.; format: functional
[8] = molecular target: 26S proteasome non-ATPase regulatory subunit 14 (Homo sapiens, UniProt O00487); test: inhibition of proteasome subunit RPN11 – biochemical, fluorescence polarization, uHTS hits, confirmation (AID 602368); format: functional
Prothrombin = Prothrombin (Bos taurus, UniProt P00735); test: thrombin protease inhibitors – biochemical, fluorescence polarization, uHTS hits, dose response (AID 602369); format: functional
Melanocortin receptor 4 [9] = molecular target: T4, Melanocortin receptor 4 (Homo sapiens, UniProt P32245); format: functional, cell-based;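 further: Cell-based assay with luminescence read-out, confirmatory dose-response testing for agonist activity of biased ligands at MC4R; human U2OS cells with tagged receptor and beta-arrestin; potency of agonists that increase receptor coupling to beta-arrestin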
[10] = molecular target: T5, Endoribonuclease toxin MazF (Escherichia coli K-12, UniProt P0AE70); test: substrate-only fluorescence increase artefacts – biochemical, single-stranded RNase substrate, counter-screen for MazEF activator project, dose response (AID 588502); format: functional
T5 sequence (P0AE70 whole entry): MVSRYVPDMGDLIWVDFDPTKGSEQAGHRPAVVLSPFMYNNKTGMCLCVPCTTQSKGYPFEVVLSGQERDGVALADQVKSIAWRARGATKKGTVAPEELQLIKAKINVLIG

[11] = molecular target: T5, Endoribonuclease toxin MazF; test: activation of MazEF endoribonuclease cleavage – biochemical, fluorescence, single-stranded RNA substrate, uHTS hits, dose response (AID 588481); format: functional
[12] = Trypanosoma cruzi growth suppression in host cells – NIH3T3 host cells, beta-gal luminescence, confirmation (AID 2044); format: functional, cell-based;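 further: intracellular parasites grown in NIH/3T3 mouse fibroblasts as host cells; luminescent beta-galactosidase reporter signal from transgenic T. cruzi replicating inside host cells; inhibitors lower the luminescence signal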
[13] = NIH3T3 cell viability loss – ATP luminescence, mouse fibroblasts, counter-screen, dose response (AID 2010); format: functional, cell-based;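 further: cells exposed to compound for about 90 hours before reading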
Melanocortin receptor 4 [14] = molecular target: T4, Melanocortin receptor 4; test: inhibitors of MC4R cAMP signaling – cell-based, TR-FRET, biased antagonists, dose response (AID 602298); format: functional;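 further: antagonist potency against agonist-stimulated cAMP production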
[15] = molecular target: T6, Carboxy-terminal domain RNA polymerase II polypeptide A small phosphatase 1 (Homo sapiens, UniProt Q9GZU7); test: CTDSP1 inhibitors, concentration-response, biochemical, absorbance readout, ultra-high-throughput screen actives (AID 540297); format: functional
T6 sequence (Q9GZU7 whole entry): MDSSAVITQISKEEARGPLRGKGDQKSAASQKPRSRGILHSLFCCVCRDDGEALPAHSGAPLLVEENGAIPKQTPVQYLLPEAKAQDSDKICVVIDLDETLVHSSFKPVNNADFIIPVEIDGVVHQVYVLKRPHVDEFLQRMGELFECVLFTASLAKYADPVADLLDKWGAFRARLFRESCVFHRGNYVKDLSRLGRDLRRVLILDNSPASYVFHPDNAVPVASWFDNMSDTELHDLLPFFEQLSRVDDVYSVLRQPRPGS

[16] = cAMP pathway inhibition in counterscreen cell line – TR-FRET cAMP detection, counter-screen for MC4R biased antagonist project, dose response (AID 602305); format: functional, cell-based;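 further: U2OS cells stimulated with forskolin near its EC80 as the cAMP inducer; potency is for inhibition of forskolin-stimulated cAMP signaling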
[17] = intracellular Trypanosoma cruzi inhibitors in host cells – cell-based, plate reader, cherry-pick samples, set 3, dose response (AID 651818); format: functional;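 further: compounds incubated with infected cells for about four days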
[18] = molecular target: T7, Mitochondrial peptide methionine sulfoxide reductase (Bos taurus, UniProt P54149); format: functional;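 further: absorbance read-out, biochemical high-throughput dose-response screen for MsrA inhibitors, confirmatory; recombinant bovine MsrA coupled to E. coli TrxB with NADPH and selenocystamine; potency is for inhibitors of MsrA activity on DMSO substrate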
T7 sequence (P54149 whole entry): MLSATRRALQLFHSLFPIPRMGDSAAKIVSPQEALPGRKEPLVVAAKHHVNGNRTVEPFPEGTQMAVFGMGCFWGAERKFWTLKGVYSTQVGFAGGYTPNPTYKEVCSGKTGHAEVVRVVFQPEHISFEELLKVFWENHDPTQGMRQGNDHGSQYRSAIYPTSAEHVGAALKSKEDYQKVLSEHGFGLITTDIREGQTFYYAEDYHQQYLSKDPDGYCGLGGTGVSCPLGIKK

Sequence of 26S proteasome non-ATPase regulatory subunit 14 (O00487 whole entry): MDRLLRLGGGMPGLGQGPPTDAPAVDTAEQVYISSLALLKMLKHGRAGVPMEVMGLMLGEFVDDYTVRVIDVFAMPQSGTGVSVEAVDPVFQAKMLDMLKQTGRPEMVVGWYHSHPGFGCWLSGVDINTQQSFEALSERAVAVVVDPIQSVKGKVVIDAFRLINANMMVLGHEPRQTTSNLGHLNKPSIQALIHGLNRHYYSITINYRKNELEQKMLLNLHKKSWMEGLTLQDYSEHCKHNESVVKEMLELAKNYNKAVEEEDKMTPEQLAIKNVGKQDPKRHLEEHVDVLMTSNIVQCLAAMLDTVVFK
Sequence of 72 kDa type IV collagenase (P08253 whole entry): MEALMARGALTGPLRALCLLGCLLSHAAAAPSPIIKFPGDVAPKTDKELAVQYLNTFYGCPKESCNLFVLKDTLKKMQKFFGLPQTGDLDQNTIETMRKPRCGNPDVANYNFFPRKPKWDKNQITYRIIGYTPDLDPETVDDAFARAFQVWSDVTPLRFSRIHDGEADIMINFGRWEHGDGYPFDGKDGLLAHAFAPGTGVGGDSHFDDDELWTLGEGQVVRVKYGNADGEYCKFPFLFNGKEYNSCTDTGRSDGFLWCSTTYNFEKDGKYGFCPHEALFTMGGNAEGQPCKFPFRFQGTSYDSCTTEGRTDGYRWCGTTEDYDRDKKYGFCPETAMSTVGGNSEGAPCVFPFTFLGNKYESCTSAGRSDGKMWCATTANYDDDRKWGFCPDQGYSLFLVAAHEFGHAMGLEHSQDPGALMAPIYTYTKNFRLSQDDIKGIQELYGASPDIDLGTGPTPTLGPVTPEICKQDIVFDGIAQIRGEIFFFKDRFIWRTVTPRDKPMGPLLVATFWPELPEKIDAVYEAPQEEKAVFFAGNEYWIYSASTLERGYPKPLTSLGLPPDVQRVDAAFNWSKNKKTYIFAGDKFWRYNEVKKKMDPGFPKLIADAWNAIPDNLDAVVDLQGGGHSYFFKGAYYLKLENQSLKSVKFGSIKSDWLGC
T4 sequence (P32245 whole entry): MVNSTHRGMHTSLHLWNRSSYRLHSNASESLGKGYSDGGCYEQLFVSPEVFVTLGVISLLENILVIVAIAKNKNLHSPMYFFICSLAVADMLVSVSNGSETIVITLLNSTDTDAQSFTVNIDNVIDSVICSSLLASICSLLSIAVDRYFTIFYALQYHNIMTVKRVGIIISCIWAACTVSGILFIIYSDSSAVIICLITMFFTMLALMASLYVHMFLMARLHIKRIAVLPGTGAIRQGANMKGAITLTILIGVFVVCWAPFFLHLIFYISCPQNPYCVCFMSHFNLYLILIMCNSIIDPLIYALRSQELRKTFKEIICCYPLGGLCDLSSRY
Sequence of Protein Wnt-3a (P27467 whole entry): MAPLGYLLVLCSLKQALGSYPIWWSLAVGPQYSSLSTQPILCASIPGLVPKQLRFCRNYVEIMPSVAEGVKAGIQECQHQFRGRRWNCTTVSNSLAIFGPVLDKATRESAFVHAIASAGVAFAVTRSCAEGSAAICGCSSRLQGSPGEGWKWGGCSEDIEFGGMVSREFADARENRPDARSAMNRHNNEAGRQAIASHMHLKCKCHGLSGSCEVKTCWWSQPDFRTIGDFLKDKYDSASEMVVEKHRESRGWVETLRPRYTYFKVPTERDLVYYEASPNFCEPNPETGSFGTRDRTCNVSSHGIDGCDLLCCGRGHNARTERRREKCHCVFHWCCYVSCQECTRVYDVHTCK

In the case of `CCCn1c2ccccc2c2cnn(CC(=O)NCCCN3CCN(c4ccccc4)CC3)c(=O)c21`, the IC50 [1] is reported as 2.84 µM (active) and the IC50 [2] is reported as 2.49 µM (active).
With `Cn1c(=O)c2c(nc(NCc3ccco3)n2Cc2ccc(Cl)cc2Cl)n(C)c1=O` the IC50 (Protein Wnt-3a) was 1.94 µM (active).
In the case of `Cc1cc(C)n(-c2ccc(NN=C(C#N)C#N)cc2)n1`, the AC50 (HEK293) is reported as 1.82 µM (active), the EC50 (Protein RecA) is reported as 9.25 µM (active) and the AC50 [3] is reported as 5.45 µM (active).
In the case of `CCOC(=O)N1CCC(NC(=O)C2CCCN(Cc3nc(-c4cccc(Cl)c4)oc3C)C2)CC1` (configuration not stated), the AC50 (INS1) is reported as 3.71 µM (active), the AC50 (HEK293) is reported as 2.51 µM (active) and the AC50 [4] is reported as 9.5 µM (active). The IC50 [2] was 6.92 µM (active), the AC50 [5] was 1.81 µM (active) and the AC50 [6] was 55.4 µM (active).
In the case of `C[C@]12CCC[C@H](O1)c1c(cc3c(c1O)C(=O)c1c(O)cc(O)cc1C3=O)O2`, the IC50 [7] is reported as 78.4 µM (active), the IC50 [8] is reported as 2.94 µM (active) and the IC50 (Prothrombin) is reported as 4.81 µM (active).
In the case of `O=C1OC(c2ccccc2)(c2cc(Br)ccc2O)c2ccccc21` (configuration not stated), the EC50 (Melanocortin receptor 4 [9]) is reported as > 89.2 µM (inactive).
With `CCc1cccc(CC)c1NC(=O)c1cccc(S(=O)(=O)N2CCN(C)CC2)c1` the IC50 [1] was 8.43 µM (active) and the IC50 [2] was 7.52 µM (active).
For `Nc1cc(SCc2ccc(Cl)cc2Cl)ncn1`, the EC50 [10] was > 99 µM (inactive) and the EC50 [11] was > 99 µM (inactive).
In the case of `COc1ccc(Nc2nc3ccc(C)cc3cc2C#N)c(OC)c1`, the EC50 [10] is reported as 14.2 µM (active) and the EC50 [11] is reported as 34.1 µM (inactive).
For `COc1ccccc1Cc1c(-c2cccc(Br)c2)nc2ccc(Cl)cn12`, the IC50 [7] was > 100 µM (inactive), the IC50 [8] was 8.48 µM (active) and the IC50 (Prothrombin) was 13 µM (active).
For `O=C1OC(c2ccccc2)(c2ccc(O)cc2)c2ccccc21` (configuration not stated), the EC50 (Melanocortin receptor 4 [9]) was > 89.2 µM (inactive).
For `CCn1/c(=N\C(=O)CS(=O)(=O)c2ccccc2)sc2cccc(OC)c21`, the EC50 [12] was 1.74 µM (active), the AC50 [4] was 1.68 µM (active) and the IC50 (Protein Wnt-3a) was 1.03 µM (active). The EC50 [13] was > 60 µM (not active), the AC50 [5] was 1.58 µM (active) and the AC50 [6] was > 70 µM (inactive).
For `C=CCn1/c(=N/C(=O)c2sc3ccccc3c2Cl)sc2cc(S(N)(=O)=O)ccc21`, the IC50 [7] was > 100 µM (inactive), the IC50 (Melanocortin receptor 4 [14]) was 30.7 µM (inactive) and the IC50 [8] was 12.5 µM (active). For the same compound, the IC50 [15] was 4.39 µM (active), the IC50 (Prothrombin) was > 100 µM (inactive) and the IC50 [16] was > 64.6 µM (inactive).
For `Cc1cc(O)cc(O)c1/C=N/Cc1ccco1`, the EC50 [10] was 21.9 µM (inactive) and the EC50 [11] was > 99 µM (inactive).
In the case of `CC(C)NC(=O)Nc1cccc2c1O[C@H](CN(C)Cc1ccc(C(=O)Nc3ccccc3N)cc1)[C@H](C)CN([C@@H](C)CO)C2=O`, the AC50 [17] is reported as 2.95 µM (active).
With `C/C(CC(C)C)=N/Nc1ccc([N+](=O)[O-])cc1[N+](=O)[O-]` the IC50 [18] was 155 µM (inactive).

Reference: ChEMBL document CHEMBL1201862, “PubChem BioAssay data set” (2004)
